The values that follow come from patent US8889704B2 (Array BioPharma Inc., priority 2011, dated 2014).

What all share (format): biochemical
The target of one assay is recombinant rat PIM-3 (Rattus norvegicus, UniProt O70444). Nature of the assay: PIM-3 Assay (as Example A). As to conditions: averaged IC50; 30 μM ATP, 3.75 μM PIM2tide, 0.5 nM PIM-3. The method in brief: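 33P incorporation from 30 μM [γ-33P]ATP into 3.75 μM PIM2tide by 0.5 nM rat PIM-3, 60 min at 22 °C in pH 7.4 MOPS buffer, read by P81 filter capture and scintillation counting. Compounds tested in 3-fold dilutions up to 10 μM final, 2% DMSO; percent-of-control data fitted by 4-parameter logistic for IC50.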

The target of another assay is PIM-1 (Homo sapiens, UniProt P11309). Nature of the assay: Enzyme PIM-1 Assay ([33P]ATP incorporation into PIM2tide, filter plate). As to conditions: averaged IC50; 35 μM ATP, 7.5 μM PIM2tide, 0.25 nM PIM-1, 60 min at 22° C. The method in brief:
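Ten-point, 3-fold dilution series (10 μM top, 2% DMSO final) tested for inhibition of 33P transfer from 35 μM ATP to 7.5 μM PIM2tide by 0.25 nM PIM-1. Reaction 60 min, 22 °C, pH 7.4 MOPS/MgCl2 buffer; phosphocellulose capture, scintillation counting, IC50 where fitted POC equals 50.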

Assay [1] has as its target T1, GST-tagged recombinant full-length human Pim-2 (Homo sapiens, UniProt Q9P1W9).
T1 construct: GST-tagged recombinant full-length human Pim-2; GST
Nature of the assay: PIM-2 Assay (as Example A). As to conditions: averaged IC50; 4 μM ATP, 1.0 μM PIM2tide, 1.5 nM Pim-2. The method in brief:
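IC50 was derived by 4-parameter logistic fitting of percent-of-control data over a 10-point, 3-fold series (highest 10 μM, 2% DMSO). Reactions held 1.5 nM GST-Pim-2 (full-length, human), 4 μM [γ-33P]ATP and 1.0 μM PIM2tide for 60 min at 22 °C, pH 7.4; 33P-peptide captured on P81 filters.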

Where a name gives a salt, the structure may show the parent alone.

T1 sequence (Q9P1W9 whole entry): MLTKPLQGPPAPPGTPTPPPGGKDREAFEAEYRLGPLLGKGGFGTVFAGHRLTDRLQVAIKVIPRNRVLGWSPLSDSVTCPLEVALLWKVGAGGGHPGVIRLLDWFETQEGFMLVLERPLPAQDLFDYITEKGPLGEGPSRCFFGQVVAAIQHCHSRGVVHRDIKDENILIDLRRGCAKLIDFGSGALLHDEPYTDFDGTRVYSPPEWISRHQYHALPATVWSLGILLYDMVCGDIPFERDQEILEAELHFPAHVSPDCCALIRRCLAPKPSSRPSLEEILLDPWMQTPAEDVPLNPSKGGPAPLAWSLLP
PIM-1, sequence (P11309 whole entry, species assumed): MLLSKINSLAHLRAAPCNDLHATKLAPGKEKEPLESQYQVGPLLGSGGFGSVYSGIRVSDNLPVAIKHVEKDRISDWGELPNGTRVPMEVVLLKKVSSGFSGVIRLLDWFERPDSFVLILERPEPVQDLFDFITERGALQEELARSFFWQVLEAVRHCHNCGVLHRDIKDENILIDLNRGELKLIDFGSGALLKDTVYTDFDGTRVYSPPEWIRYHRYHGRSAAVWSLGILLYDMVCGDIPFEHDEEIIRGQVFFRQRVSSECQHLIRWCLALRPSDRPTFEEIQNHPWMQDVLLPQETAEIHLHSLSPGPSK

As to `FC(F)(F)[C@@H](c1ccc2nnc(-c3ccc4ccc(Cl)cc4n3)n2c1)N1C[C@@H]2C[C@H]1CN2` [Example 64, 2-(6-((R)-1-((1S,4S)-2,5-diazabicyclo[2.2.1]heptan-2-yl)-2,2,2-trifluoroethyl)-[1,2,4]triazolo[4,3-a]pyridin-3-yl)-7-chloro quinoline dihydrochloride], the IC50 was 14 nM on recombinant rat PIM-3, 9.33 nM at PIM-1 and over 100 nM in assay [1].
On to `FC(F)(F)[C@@H](c1ccc2nnc(-c3ccc4cccc(C5CC5)c4n3)n2c1)N1C[C@@H]2C[C@H]1CN2` [Example 65, 2-(6-((R)-1-((1S,4S)-2,5-diazabicyclo[2.2.1]heptan-2-yl)-2,2,2-trifluoroethyl)-[1,2,4]triazolo[4,3-a]pyridin-3-yl)-8-cyclopropylquinoline dihydrochloride], for which the IC50 on recombinant rat PIM-3 was 2 nM; against PIM-1 it was 1.45 nM; in assay [1], 18 nM.
Take `CCc1cccc2ccc(-c3nnc4ccc([C@@H](N5C[C@@H]6C[C@H]5CN6)C(F)(F)F)cn34)nc12` [Example 66, 2-(6-((R)-1-((1S,4S)-2,5-diazabicyclo[2.2.1]heptan-2-yl)-2,2,2-trifluoroethyl)-[1,2,4]triazolo[4,3-a]pyridin-3-yl)-8-ethylquinoline dihydrochloride]: the IC50 is 1.7 nM on recombinant rat PIM-3, 0.92 nM against PIM-1 and 14 nM in assay [1].
For the molecule `FC(F)(F)[C@@H](c1ccc2nnc(-c3ccc4cccc(OCC5CC5)c4n3)n2c1)N1C[C@@H]2C[C@H]1CN2` [Example 67, 2-(6-((R)-1-((1S,4S)-2,5-diazabicyclo[2.2.1]heptan-2-yl)-2,2,2-trifluoroethyl)-[1,2,4]triazolo[4,3-a]pyridin-3-yl)-8-(cyclopropylmethoxy)quinoline dihydrochloride], the IC50 on recombinant rat PIM-3 worked out at 3.2 nM; against PIM-1 it was 1.63 nM; in assay [1] it was 63 nM.
Consider `FC(F)(F)[C@@H](c1ccc2nnc(-c3ccc4ccc(Br)cc4n3)n2c1)N1C[C@@H]2C[C@H]1CN2` [Example 68, 2-(6-((R)-1-(1S,4S)-2,5-diazabicyclo[2.2.1]heptan-2-yl)-2,2,2-trifluoroethyl)-[1,2,4]triazolo[4,3-a]pyridin-3-yl)-7-bromo quinoline dihydrochloride], for which the IC50 is 14 nM at recombinant rat PIM-3, 4.09 nM against PIM-1 and over 100 nM in assay [1].
On the same counts, the results for `COc1c(C2CC2)ccc2ccc(-c3nnc4ccc([C@@H](N5CC[C@H](N)C5)C(F)(F)F)cn34)nc12` [Example 69, (S)-1-((R)-1-(3-(7-cyclopropyl-8-methoxyquinolin-2-yl)-[1,2,4]triazolo[4,3-a]pyridin-6-yl)-2,2,2-trifluoroethyl)pyrrolidin-3-amine dihydrochloride] are 0.5 nM, 0.21 nM and 38 nM.
For the molecule `CC(C)C(=O)Nc1ccc2ccc(-c3nnc4ccc([C@@H](N5CC[C@H](N)C5)C(F)(F)F)cn34)nc2c1` [Example 70, N-(2-(6-((R)-1-((S)-3-aminopyrrolidin-1-yl)-2,2,2-trifluoroethyl)-[1,2,4]triazolo[4,3-a]pyridin-3-yl)quinolin-7-yl)isobutyramide], the concentration for half-maximal inhibition (IC50) at recombinant rat PIM-3 is 0.3 nM; at PIM-1 it was 0.18 nM; in assay [1], over 100 nM.
Regarding `CC(C)(C)C(=O)Nc1ccc2ccc(-c3nnc4ccc([C@@H](N5CC[C@H](N)C5)C(F)(F)F)cn34)nc2c1` [Example 71, N-(2-(6-((R)-1-((S)-3-aminopyrrolidin-1-yl)-2,2,2-trifluoroethyl)-[1,2,4]triazolo[4,3-a]pyridin-3-yl)quinolin-7-yl)pivalamide], the IC50 was 0.3 nM on recombinant rat PIM-3, 0.2 nM at PIM-1 and over 100 nM in assay [1].
On the same counts, the results for `CC(C)Oc1cccc2ccc(-c3nnc4ccc([C@@H](N5C[C@@H](O)[C@H](O)C5)C(F)(F)F)cn34)nc12` [Example 72, (3R,4R)-1-((R)-2,2,2-trifluoro-1-(3-(8-isopropoxyquinolin-2-yl)-[1,2,4]triazolo[4,3-a]pyridin-6-yl)ethyl)pyrrolidine-3,4-diol] are 2.9 nM, 0.19 nM and over 100 nM.
Regarding `CCc1cccc2ccc(-c3nnc4ccc([C@@H](N5C[C@@H](O)[C@H](O)C5)C(F)(F)F)cn34)nc12` [Example 73, (3R,4R)-1-((R)-1-(3-(8-ethylquinolin-2-yl)-[1,2,4]triazolo[4,3-a]pyridin-6-yl)-2,2,2-trifluoroethyl)pyrrolidine-3,4-diol], the IC50 at recombinant rat PIM-3 is 32 nM; at PIM-1 it was 0.17 nM; in assay [1], over 100 nM.
On to `CC(C)(C)c1cccc2ccc(-c3nnc4ccc([C@@H](N5C[C@@H](O)[C@H](O)C5)C(F)(F)F)cn34)nc12` [Example 74, (3R,4R)-1-((R)-1-(3-(8-tert-butylquinolin-2-yl)-[1,2,4]triazolo[4,3-a]pyridin-6-yl)-2,2,2-trifluoroethyl)pyrrolidine-3,4-diol], for which the IC50 was found to be 6.7 nM on recombinant rat PIM-3, 0.09 nM at PIM-1 and 41 nM in assay [1].
As to `CC(C)Oc1c(C#N)ccc2ccc(-c3nnc4ccc([C@@H](N5CC[C@H](N)C5)C(F)(F)F)cn34)nc12` [Example 75, 2-(6-((R)-1-((S)-3-aminopyrrolidin-1-yl)-2,2,2-trifluoroethyl)-[1,2,4]triazolo[4,3-a]pyridin-3-yl)-8-isopropoxyquinoline-7-carbonitrile dihydrochloride], the IC50 at recombinant rat PIM-3 was 18 nM; at PIM-1, 1.84 nM; in assay [1], over 100 nM.
Regarding `FC(F)(F)[C@H](c1ccc2nnc(-c3ccc4cccc(OCC5CC5)c4n3)n2c1)N1C[C@@H]2C[C@H]1CN2` [Example 76, 2-(6-((S)-1-((1S,4S)-2,5-diazabicyclo[2.2.1]heptan-2-yl)-2,2,2-trifluoroethyl)-[1,2,4]triazolo[4,3-a]pyridin-3-yl)-8-(cyclopropylmethoxy)quinoline dihydrochloride], the IC50 on recombinant rat PIM-3 was 3.6 nM; at PIM-1 it was 0.4 nM; in assay [1], 52 nM.
For `FC(F)(F)[C@H](c1ccc2nnc(-c3ccc4ccc(C5CC5)cc4n3)n2c1)N1C[C@@H]2C[C@H]1CN2` [Example 77, 2-(6-((S)-1-((1S,4S)-2,5-diazabicyclo[2.2.1]heptan-2-yl)-2,2,2-trifluoroethyl)-[1,2,4]triazolo[4,3-a]pyridin-3-yl)-7-cyclopropylquinoline dihydrochloride], the IC50 at recombinant rat PIM-3 came out at 0.3 nM; on PIM-1, 0.16 nM; in assay [1], 10 nM.
In the same order, the values of `O[C@@H]1CN([C@H](c2ccc3nnc(-c4ccc5cccc(C6CC6)c5n4)n3c2)C(F)(F)F)C[C@H]1O` [Example 78, (3R,4R)-1-((R)-1-(3-(8-cyclopropylquinolin-2-yl)-[1,2,4]triazolo[4,3-a]pyridin-6-yl)-2,2,2-trifluoroethyl)pyrrolidine-3,4-diol] are 10 nM, 0.24 nM and over 100 nM.
On to `CCOc1cccc2ccc(-c3nnc4ccc([C@@H](N5CC[C@H](N)C5)C(F)(F)F)cn34)nc12` [Example 79, (S)-1-((R)-1-(3-(8-ethoxyquinolin-2-yl)-[1,2,4]triazolo[4,3-a]pyridin-6-yl)-2,2,2-trifluoroethyl)pyrrolidin-3-amine], for which the IC50 was found to be 3 nM on recombinant rat PIM-3, 0.16 nM at PIM-1 and 58 nM in assay [1].
